The source of these data is patent US9751837B2, “Kinase inhibitors” (RESPIVERT LIMITED, priority 2014, dated 2017).

The structures appear in SMILES notation. Converted amounts (≈) assume the structure as drawn. Where a name gives a salt, the structure may show the parent alone.

A short description of this data set: Solubility in fasted-state simulated colonic fluid (FaSSCoF) at pH 6.5. In kind it is physicochemical. Conditions: 25 °C, pH 6.5, fassgf or other biorelevant, thermodynamic from solid. The procedure: The solubilities of compounds of the invention in FaSSCoF at pH 6.5 are determined using a modification of a previously-reported procedure (Vertzoni, M., et al. Pharm. Res. 2010, 27, 2187-2196). In place of the bile salt extract employed in the original procedure (which extract is no longer available), the modified procedure uses a mixture of sodium taurochlorate (0.15 g), glycocholic acid (0.15 g), ursodeoxycholic acid (0.05 g), cholic acid (0.05 g), and glycodeoxycholic acid (0.05 g). These five bile acids are ground together with a mortar and pestle to produce a fine white powder that is incorporated into the FaSSCoF, as outlined below.
Tris(hydroxymethyl)aminomethane (Tris; 0.275 g) and maleic acid (0.44 g) are dissolved in water (35 mL) to give a solution whose pH is adjusted to 6.5 by treatment with 0.5M NaOH (ca. 12 mL). The solution is then made up to 50 mL with water. A portion of this Tris/maleate buffer solution (ca. 25 mL) is added to a 0.5 L round-bottomed flask, before being treated with 0.00565 g of the bile acid mixture described above. Solutions of phosphatidylcholine (0.0111 g) in DCM (0.15 mL) and palmitic acid (0.0013 g) in DCM (0.15 mL) are added, then the organic solvent is evaporated off under reduced pressure at 40° C. until a clear solution, with no perceptible DCM odour, is achieved. The volume of the evaporated solution is adjusted to 50 mL by addition of the remainder of Tris/maleate buffer, then BSA (0.115 g) is added, before being dissolved by gentle agitation.
Test compounds are suspended in the pH 6.5 FaSSCoF medium to give a maximum final concentration of 2-10 mg/mL. The suspensions are equilibrated at 25° C. for 24 h, before being filtered through a glass fibre C filter. The filtrates are then diluted as appropriate for injection and quantification by HPLC with reference to a standard. Different volumes of the standard, diluted and undiluted sample solutions are injected and the solubilities are calculated using the peak areas determined by integration of the peak found at the same retention time as the principal peak in the standard injection.

Where [1] appears, read: pH 6.5 FaSSCoF Solubility (mg/mL) Run 1.
The mark [2] stands for this setting: pH 6.5 FaSSCoF Solubility (mg/mL) Run 2.

As usually defined, the solubility (thermodynamic) is solubility found after equilibrating the solid with the medium. On to `COc1c(NC(=O)Nc2ccc(Oc3ccnc(Nc4ccc(C(=O)O)c(N(C)C)c4)c3)c3ccccc23)cc(C(C)(C)C)cc1NS(C)(=O)=O` [17(am), 4-[[4-[[4-[[5-tert-butyl-3-(methanesulfonamido)-2-methoxy-phenyl]carbamoylamino]-1-naphthyl]oxy]-2-pyridyl]amino]-2-(dimethylamino)benzoic acid], for which the solubility (thermodynamic) at 24 h is 10 µg/mL (≈ 14 µM) under setting [1] and 12 µg/mL (≈ 16.8 µM) under setting [2].
In the same order, the values of `COc1cc(Nc2cc(Oc3ccc(NC(=O)Nc4cc(C(C)(C)C)cc(NS(C)(=O)=O)c4OC)c4ccccc34)ccn2)ccc1C(=O)NCC(=O)O` [17(ar) (hydrochloride salt), 2-(4-((4-((4-(3-(5-(tert-Butyl)-2-methoxy-3-(methylsulfonamido)phenyl)ureido)naphthalen-1-yl)oxy)pyridin-2-yl)amino)-2-methoxybenzamido)acetic acid] are 204 µg/mL and 198 µg/mL.
`COc1cc(Nc2cc(Oc3ccc(NC(=O)Nc4cc(C(C)(C)C)cc(NS(C)(=O)=O)c4OC)c4ccccc34)ccn2)cc(OC)c1C(=O)NCCC1CCN(C)CC1` [17(at), 4-((4-((4-(3-(5-(tert-Butyl)-2-methoxy-3-(methylsulfonamido)phenyl)ureido)naphthalen-1-yl)oxy)pyridin-2-yl)amino)-2,6-dimethoxy-N-(2-(1-methylpiperidin-4-yl)ethyl)benzamide]: the thermodynamic solubility at 24 h was 9 µg/mL (≈ 10.5 µM) under setting [1] and 9 µg/mL (≈ 10.5 µM) under setting [2].
On to `COc1cc(Nc2cc(Oc3ccc(NC(=O)Nc4cc(C(C)(C)C)cc(NS(C)(=O)=O)c4OC)c4ccccc34)ccn2)ccc1C(=O)NCCC(=O)O` [17(ay) (hydrochloride salt), 3-(4-((4-((4-(3-(5-(tert-Butyl)-2-methoxy-3-(methylsulfonamido)phenyl)ureido)-naphthalen-1-yl)oxy)pyridin-2-yl)amino)-2-methoxybenzamido)propanoic acid], for which the solubility (thermodynamic) at 24 h reads like this: under setting [1], 29 µg/mL; under setting [2], 28 µg/mL.
As for `COc1cc(Nc2cc(Oc3ccc(NC(=O)Nc4cc(C(C)(C)C)cc(NS(C)(=O)=O)c4OC)c4ccccc34)ccn2)ccc1C(=O)N[C@@H](CO)C(=O)O` [17(bj) (sodium salt), (S)-2-(4-((4-((4-(3-(5-(tert-Butyl)-2-methoxy-3-(methylsulfonamido)phenyl)ureido)-naphthalen-1-yl)oxy)pyridin-2-yl)amino)-2-methoxybenzamido)-3-hydroxypropanoic acid], under setting [1], the solubility (thermodynamic) at 24 h was 1310 µg/mL.
`CCC(=O)NS(=O)(=O)c1ccc(Nc2nccc(Oc3ccc(NC(=O)Nc4cc(C(C)(C)C)cc(NS(C)(=O)=O)c4OC)c4ccccc34)n2)cc1OC` [17(bk) (sodium salt), N-((4-((4-((4-(3-(5-(tert-Butyl)-2-methoxy-3-(methylsulfonamido)phenyl)ureido)-naphthalen-1-yl)oxy)pyrimidin-2-yl)amino)-2-methoxyphenyl)sulfonyl)propionamide] gave a solubility (thermodynamic) at 24 h under setting [1] of 42 µg/mL and a thermodynamic solubility at 24 h under setting [2] of 37 µg/mL.
In the same order, the values of `COc1cc(Nc2cc(Oc3ccc(NC(=O)Nc4cc(C(C)(C)C)cc(NS(C)(=O)=O)c4OC)c4ccccc34)ccn2)ccc1C(=O)NCCO` [17(bn), 4-((4-((4-(3-(5-(tert-Butyl)-2-methoxy-3-(methylsulfonamido)phenyl)ureido)naphthalen-1-yl)oxy)pyridin-2-yl)amino)-N-(2-hydroxyethyl)-2-methoxybenzamide] are 8 µg/mL (≈ 10.8 µM) and 6 µg/mL (≈ 8.08 µM).
For the molecule `COc1cc(Nc2cc(Oc3ccc(NC(=O)Nc4cc(C(C)(C)C)cc(NS(C)(=O)=O)c4OC)c4ccccc34)ccn2)ccc1C(=O)N[C@H]1C(O)O[C@H](CO)[C@@H](O)[C@@H]1O` (stereo partly drawn) [17(br), 4-((4-((4-(3-(5-(tert-Butyl)-2-methoxy-3-(methylsulfonamido)phenyl)ureido)naphthalen-1-yl)oxy)pyridin-2-yl)amino)-2-methoxy-N-((3R,4R,5S,6R)-2,4,5-trihydroxy-6-(hydroxymethyl)tetrahydro-2H-pyran-3-yl)benzamide], the thermodynamic solubility at 24 h under setting [1] is 9 µg/mL (≈ 10.5 µM) and the thermodynamic solubility at 24 h under setting [2] is 8 µg/mL (≈ 9.29 µM).
The like results for `COc1cc(Nc2cc(Oc3ccc(NC(=O)Nc4cc(C(C)(C)C)cc(NS(C)(=O)=O)c4OC)c4ccccc34)ccn2)ccc1C(=O)NCCCC[C@H](N)C(=O)O` [17(bu) (dihydrochloride salt), (S)-2-Amino-6-(4-((4-((4-(3-(5-(tert-butyl)-2-methoxy-3-(methylsulfonamido)phenyl)-ureido)naphthalen-1-yl)oxy)pyridin-2-yl)amino)-2-methoxybenzamido)hexanoic acid] were, in that order, 6 µg/mL and 6 µg/mL.
In the same order, the values of `COc1cc(Nc2cc(Oc3ccc(NC(=O)Nc4cc(C(C)(C)C)cc(NS(C)(=O)=O)c4OC)c4ccccc34)ccn2)ccc1C(=O)NC[C@H](O)[C@@H](O)[C@H](O)[C@H](O)CO` [17(bw), 4-((4-((4-(3-(5-(tert-Butyl)-2-methoxy-3-(methylsulfonamido)phenyl)ureido)naphthalen-1-yl)oxy)pyridin-2-yl)amino)-2-methoxy-N-((2S,3R,4R,5R)-2,3,4,5,6-pentahydroxyhexyl)benzamide] are 2 µg/mL (≈ 2.32 µM) and 3 µg/mL (≈ 3.48 µM).
For `COc1cc(Nc2cc(Oc3ccc(NC(=O)Nc4cc(C(C)(C)C)cc(NS(C)(=O)=O)c4OC)c4ccccc34)ccn2)cc(OC)c1C(=O)NC1CCN(C)CC1` [17(bz), 4-((4-((4-(3-(5-(tert-Butyl)-2-methoxy-3-(methylsulfonamido)phenyl)ureido)naphthalen-1-yl)oxy)pyridin-2-yl)amino)-2,6-dimethoxy-N-(1-methylpiperidin-4-yl)benzamide], the thermodynamic solubility at 24 h runs as follows: under setting [1], 21 µg/mL (≈ 25.4 µM); under setting [2], 26 µg/mL (≈ 31.5 µM); (pH 6.5 FaSSCoF Solubility (mg/mL) Run 3) 14 µg/mL (≈ 16.9 µM); (pH 6.5 FaSSCoF Solubility (mg/mL) Run 4) 19 µg/mL (≈ 23 µM).
As to `COc1cc(Nc2cc(Oc3ccc(NC(=O)Nc4cc(C(C)(C)C)cc(NS(C)(=O)=O)c4OC)c4ccccc34)ccn2)ccc1C(=O)NCCNC(=O)CCC(=O)O` [17(cd) (hydrochloride salt), 4-((2-(4-((4-((4-(3-(5-(tert-Butyl)-2-methoxy-3-(methylsulfonamido)phenyl)ureido)-naphthalen-1-yl)oxy)pyridin-2-yl)amino)-2-methoxybenzamido)ethyl)amino)-4-oxobutanoic acid], the solubility (thermodynamic) at 24 h is 51 µg/mL under setting [1] and 49 µg/mL under setting [2].
In the same order, the values of `COc1cc(Nc2cc(Oc3ccc(NC(=O)Nc4cc(C(C)(C)C)cc(NS(C)(=O)=O)c4OC)c4ccccc34)ccn2)ccc1C(=O)NCCC(=O)N1C[C@H](O)[C@@H](O)[C@H](O)[C@H]1CO` [17(cf), 4-((4-((4-(3-(5-(tert-Butyl)-2-methoxy-3-(methylsulfonamido)phenyl)ureido)naphthalen-1-yl)oxy)pyridin-2-yl)amino)-2-methoxy-N-(3-oxo-3-((2R,3R,4R,5S)-3,4,5-trihydroxy-2-(hydroxymethyl)piperidin-1-yl)propyl)benzamide] are 3 µg/mL (≈ 3.28 µM) and 1 µg/mL (≈ 1.09 µM).
